Measurements as given in ChEMBL document CHEMBL2073767, “Novel membrane transporter OCTN1 mediates multispecific, bidirectional, and pH-dependent transport of organic cations” (J Pharmacol Exp Ther, 1999).

Assays:
[1] = biological target: T1, Solute carrier family 22 member 4 (Homo sapiens, UniProt Q9H015); test: TP_TRANSPORTER: inhibition of TEA uptake (TEA: 60 uM, NMN: 5000 uM) in Xenopus laevis oocytes; type: functional, cell-based; conditions: oocyte
T1 sequence (Q9H015 whole entry): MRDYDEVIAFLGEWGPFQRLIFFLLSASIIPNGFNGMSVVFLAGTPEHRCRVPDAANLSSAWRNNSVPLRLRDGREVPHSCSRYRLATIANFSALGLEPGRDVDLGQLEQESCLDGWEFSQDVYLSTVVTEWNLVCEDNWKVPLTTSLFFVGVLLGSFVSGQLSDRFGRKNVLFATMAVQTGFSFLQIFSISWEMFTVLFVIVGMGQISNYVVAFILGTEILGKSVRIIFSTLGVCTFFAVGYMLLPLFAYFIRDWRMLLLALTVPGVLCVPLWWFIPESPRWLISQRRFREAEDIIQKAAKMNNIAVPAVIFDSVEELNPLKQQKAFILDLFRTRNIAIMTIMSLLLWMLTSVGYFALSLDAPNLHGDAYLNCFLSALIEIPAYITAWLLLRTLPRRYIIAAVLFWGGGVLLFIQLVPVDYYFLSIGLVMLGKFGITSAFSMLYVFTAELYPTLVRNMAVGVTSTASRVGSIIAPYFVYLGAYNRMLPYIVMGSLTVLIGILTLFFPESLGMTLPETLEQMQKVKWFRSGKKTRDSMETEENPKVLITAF

[2] = biological target: T1, Solute carrier family 22 member 4; test: TP_TRANSPORTER: inhibition of TEA uptake (TEA: 60 uM, OFLX: 1000 uM) in Xenopus laevis oocytes; type: functional, cell-based, Oocyte; design: scale not given: the % may be the effect or the level left; conditions: probe TEA, read-out: Activity
[3] = biological target: T1, Solute carrier family 22 member 4; test: in vitro; conditions: xenopus laevis, Xenopus laevis oocytes, probe TEA
Description: TP_TRANSPORTER: inhibition of TEA uptake (TEA: 60 uM, Choline: 5000 uM) in Xenopus laevis oocytes

[4] = biological target: T1, Solute carrier family 22 member 4; test: TP_TRANSPORTER: inhibition of TEA uptake (TEA: 60 uM, Spermidine: 5000 uM) in Xenopus laevis oocytes; type: functional, cell-based; conditions: oocyte
[5] = biological target: T1, Solute carrier family 22 member 4; test: TP_TRANSPORTER: inhibition of TEA uptake (TEA: 60 uM, Pyrilamine: 1000 uM) in Xenopus laevis oocytes; type: functional, cell-based, Oocyte; design: scale not given: the % may be the effect or the level left; conditions: probe TEA, read-out: Activity
[6] = biological target: T1, Solute carrier family 22 member 4; test: TP_TRANSPORTER: uptake in Xenopus laevis oocytes; type: functional, cell-based; conditions: oocyte
[7] = biological target: T1, Solute carrier family 22 member 4; test: TP_TRANSPORTER: inhibition of TEA uptake (TEA: 60 uM, PCG: 5000 uM) in Xenopus laevis oocytes; type: functional, cell-based; conditions: oocyte
[8] = biological target: T1, Solute carrier family 22 member 4; test: in vitro; conditions: xenopus laevis, Xenopus laevis oocytes, probe TEA; remark: listed apart in the source
[9] = biological target: T1, Solute carrier family 22 member 4; test: TP_TRANSPORTER: inhibition of TEA uptake (TEA: 60 uM, Verapamil: 1000 uM) in Xenopus laevis oocytes; type: functional, cell-based, Oocyte; design: scale not given: the % may be the effect or the level left; conditions: probe TEA, read-out: Activity
[10] = biological target: T1, Solute carrier family 22 member 4; test: TP_TRANSPORTER: inhibition of TEA uptake (TEA: 60 uM, Lysine: 5000 uM) in Xenopus laevis oocytes; type: functional, cell-based; conditions: oocyte
[11] = biological target: T1, Solute carrier family 22 member 4; test: in vitro; conditions: xenopus laevis, Xenopus laevis oocytes, probe TEA; remark: listed apart in the source
Description: TP_TRANSPORTER: inhibition of TEA uptake (TEA: 60 uM, Nicotine: 1000 uM) in Xenopus laevis oocytes

[12] = biological target: T1, Solute carrier family 22 member 4; test: TP_TRANSPORTER: inhibition of TEA uptake (TEA: 60 uM, Arginine: 5000 uM) in OCTN1-expressing HEK293 cells; type: functional, cell-based; conditions: hek293, 5000 µM
[13] = biological target: T1, Solute carrier family 22 member 4; test: TP_TRANSPORTER: inhibition of TEA uptake (TEA: 60 uM, Quinidine: 1000 uM) in Xenopus laevis oocytes; type: functional, cell-based, Oocyte; design: scale not given: the % may be the effect or the level left; conditions: probe TEA, read-out: Activity
[14] = biological target: T1, Solute carrier family 22 member 4; test: TP_TRANSPORTER: inhibition of TEA uptake (TEA: 60 uM, D-Carnitine: 1000 uM) in Xenopus laevis oocytes; type: functional, cell-based, Oocyte; design: scale not given: the % may be the effect or the level left; conditions: probe TEA, read-out: Activity
[15] = biological target: T1, Solute carrier family 22 member 4; test: TP_TRANSPORTER: inhibition of TEA uptake (TEA: 60 uM, Guanidine: 5000 uM) in Xenopus laevis oocytes; type: functional, cell-based, Oocyte; design: scale not given: the % may be the effect or the level left; conditions: probe TEA, read-out: Activity
[16] = biological target: T1, Solute carrier family 22 member 4; test: TP_TRANSPORTER: inhibition of TEA uptake (TEA: 60 uM, Quinine: 1000 uM) in Xenopus laevis oocytes; type: functional, cell-based; design: scale not given: the % may be the effect or the level left; conditions: oocyte
[17] = biological target: T1, Solute carrier family 22 member 4; test: TP_TRANSPORTER: inhibition of TEA uptake (TEA: 60 uM, Procainamide: 1000 uM) in Xenopus laevis oocytes; type: functional, cell-based, Oocyte; design: scale not given: the % may be the effect or the level left; conditions: probe TEA, read-out: Activity
[18] = biological target: T1, Solute carrier family 22 member 4; test: TP_TRANSPORTER: inhibition of TEA uptake (TEA: 60 uM, Levofloxacin: 1000 uM) in Xenopus laevis oocytes; type: functional, cell-based; design: scale not given: the % may be the effect or the level left; conditions: oocyte
[19] = biological target: T1, Solute carrier family 22 member 4; test: TP_TRANSPORTER: inhibition of TEA uptake (TEA: 60 uM, PAH: 5000 uM) in Xenopus laevis oocytes; type: functional, cell-based; conditions: oocyte
[20] = biological target: T1, Solute carrier family 22 member 4; test: TP_TRANSPORTER: inhibition of TEA uptake (TEA: 60 uM, CER: 1000 uM) in Xenopus laevis oocytes; type: functional, cell-based, Oocyte; design: scale not given: the % may be the effect or the level left; conditions: probe TEA, read-out: Activity
[21] = biological target: T1, Solute carrier family 22 member 4; test: TP_TRANSPORTER: inhibition of TEA uptake (TEA: 60 uM, L-Carnitine: 1000 uM) in Xenopus laevis oocytes; type: functional, cell-based, Oocyte; design: scale not given: the % may be the effect or the level left; conditions: probe TEA, read-out: Activity
[22] = substrate: CC[N+](CC)(CC)CC; test: cells, lysate or membranes named

CNC(=O)c1cccnc1 [NICOTINYL METHYLAMIDE] was tested, and the Activity [1] was “is not an inhibitor [-]”.

CC1COc2c(N3CCN(C)CC3)c(F)cc3c(=O)c(C(=O)O)cn1c23 (stereo unspecified) [OFLOXACIN] gave an activity at 1000 µM [2] of 61.4%.

C[N+](C)(C)CCO [CHOLINE] was tested, and the activity at 5000 µM [3] was 73.2%.

For NCCCCNCCCN [SPERMIDINE], the Activity [4] was “is not an inhibitor [-]”.

COc1ccc(CN(CCN(C)C)c2ccccn2)cc1 [PYRILAMINE] was tested, and the activity at 1000 µM [5] was 0% and the Activity [6] was “substrate [+]”.

With CC1(C)S[C@@H]2[C@H](NC(=O)Cc3ccccc3)C(=O)N2[C@H]1C(=O)O [PENICILLIN G] the Activity [7] was “is not an inhibitor [-]” and the Activity [6] was “is not a substrate [-]”.

Clc1cccc(Cl)c1N=C1NCCN1 [CLONIDINE] was tested, and the activity at 1000 µM [8] was 70.9%.

COc1ccc(CCN(C)CCCC(C#N)(c2ccc(OC)c(OC)c2)C(C)C)cc1OC (stereo unspecified) was tested, and the activity at 1000 µM [9] was 8.8% and the Activity [6] was “substrate [+]”.

NCCCC[C@H](N)C(=O)O [LYSINE] was tested, and the Activity [10] was “is not an inhibitor [-]”.

In the case of CN1CCC[C@H]1c1cccnc1 [NICOTINE], the activity at 1000 µM [11] is reported as 71.6%.

N=C(N)NCCC[C@H](N)C(=O)O [ARGININE] was tested, and the Activity [12] was “is not an inhibitor [-]”.

For C=C[C@H]1C[N@@]2CC[C@H]1C[C@@H]2[C@@H](O)c1ccnc2ccc(OC)cc12 [QUINIDINE], the activity at 1000 µM [13] was 15.2% and the Activity [6] was “substrate [+]”.

Work on C[N+](C)(C)C[C@@H](O)CC(=O)[O-] [D-CARNITINE] yielded an activity at 1000 µM [14] of 53.9%.

In the case of N=C(N)N [GUANIDINE], the activity at 5000 µM [15] is reported as 89.6%.

With C=C[C@H]1C[N@@]2CC[C@H]1C[C@H]2[C@H](O)c1ccnc2ccc(OC)cc12 [QUININE] the Activity [16] was 24.6%.

CCN(CC)CCNC(=O)c1ccc(N)cc1 [PROCAINAMIDE] was tested, and the activity at 1000 µM [17] was 15.6%.

C[C@H]1COc2c(N3CCN(C)CC3)c(F)cc3c(=O)c(C(=O)O)cn1c23.C[C@H]1COc2c(N3CCN(C)CC3)c(F)cc3c(=O)c(C(=O)O)cn1c23.O [LEVOFLOXACIN] showed an Activity [18] of 63.6%.

For Nc1ccc(C(=O)NCC(=O)O)cc1 [AMINOHIPPURIC ACID], the Activity [19] was “is not an inhibitor [-]”.

Molecule O=C(Cc1cccs1)N[C@@H]1C(=O)N2C(C(=O)[O-])=C(C[n+]3ccccc3)CS[C@H]12 [CEPHALORIDINE] has an activity at 1000 µM [20] of 35.7%.

In the case of C[N+](C)(C)CC(O)CC(=O)[O-] (stereo unspecified) [CARNITINE], the activity at 1000 µM [21] is reported as 32.5% and the Activity [6] is reported as “substrate [+]”.

B1: Solute carrier family 22 member 4 (Homo sapiens) (protein)
chain: MRDYDEVIAFLGEWGPFQRLIFFLLSASIIPNGFNGMSVVFLAGTPEHRCRVPDAANLSSAWRNNSVPLRLRDGREVPHSCSRYRLATIANFSALGLEPGRDVDLGQLEQESCLDGWEFSQDVYLSTVVTEWNLVCEDNWKVPLTTSLFFVGVLLGSFVSGQLSDRFGRKNVLFATMAVQTGFSFLQIFSISWEMFTVLFVIVGMGQISNYVVAFILGTEILGKSVRIIFSTLGVCTFFAVGYMLLPLFAYFIRDWRMLLLALTVPGVLCVPLWWFIPESPRWLISQRRFREAEDIIQKAAKMNNIAVPAVIFDSVEELNPLKQQKAFILDLFRTRNIAIMTIMSLLLWMLTSVGYFALSLDAPNLHGDAYLNCFLSALIEIPAYITAWLLLRTLPRRYIIAAVLFWGGGVLLFIQLVPVDYYFLSIGLVMLGKFGITSAFSMLYVFTAELYPTLVRNMAVGVTSTASRVGSIIAPYFVYLGAYNRMLPYIVMGSLTVLIGILTLFFPESLGMTLPETLEQMQKVKWFRSGKKTRDSMETEENPKVLITAF
For B1, the Km [22] was 436 µM.
